We go through 15 molecules from ChEMBL document CHEMBL4342438, “Discovery of pyrazolone spirocyclohexadienone derivatives with potent antitumor activity” (Bioorg Med Chem Lett, 2020).

Molecules are shown by their SMILES.

Assay [1] deals with MDA-MB-231. Description: Antiproliferative activity against human MDA-MB-231 cells assessed as reduction in cell growth measured after 72 hrs by CCK8 assay. The following applies: MDA-MB-231, 72 h. The format is functional, cell-based.
For another assay, the system named is A549. Description: Antiproliferative activity against human A549 cells assessed as reduction in cell growth measured after 72 hrs by CCK8 assay. The format is functional, cell-based. To be noted: A549, 72 h. On the technique in general: Tetrazolium dyes change colour on reduction, which living cells bring about.
The next assay deals with HCT-116. Nature of the assay: Antiproliferative activity against human HCT116 cells assessed as reduction in cell growth measured after 72 hrs by CCK8 assay. The format is functional, cell-based. To be noted: HCT-116, 72 h.
For another assay, the system named is HUVEC. Nature of the assay: Cytotoxicity against HUVEC assessed as inhibition of cell growth measured after 72 hrs by CCK8 assay. The format is cell-based. To be noted: Homo sapiens.
For assay [2], the system named is MDA-MB-231. Nature of the assay: Induction of cell cycle arrest in human MDA-MB-231 cells assessed as accumulation at G1 phase at 2 uM measured after 24 hrs by flow cytometry analysis (reference value: 43.68%). The format is functional.
The test system of assay [3] is MDA-MB-231. Nature of the assay: Induction of apoptosis in human MDA-MB-231 cells assessed as increase in apoptotic cells measured after 48 hrs by annexinV-FITC/propidium iodide staining based flow cytometry analysis. The format is functional, cell-based. On the technique in general: In flow cytometry, cells or beads pass a laser one at a time.
For assay [4], the system named is MDA-MB-231. Nature of the assay: Induction of cell cycle arrest in human MDA-MB-231 cells assessed as accumulation at S phase at 1 uM measured after 24 hrs by flow cytometry analysis (reference value: 32.63%). The format is functional.
The subject of assay [5] is MDA-MB-231. Description: Induction of apoptosis in human MDA-MB-231 cells assessed as apoptotic cells at 5 uM measured after 48 hrs by annexinV-FITC/propidium iodide staining based flow cytometry analysis (reference value: 5.62%). The format is functional.
Assay [6] deals with MDA-MB-231. Description: Induction of cell cycle arrest in human MDA-MB-231 cells assessed as accumulation at G2 phase at 2 uM measured after 24 hrs by flow cytometry analysis (reference value: 23.69%). The format is functional.
For assay [7], the system named is MDA-MB-231. Description: Induction of apoptosis in human MDA-MB-231 cells assessed as apoptotic cells at 2.5 uM measured after 48 hrs by annexinV-FITC/propidium iodide staining based flow cytometry analysis (reference value: 5.62%). The format is functional.
For assay [8], the system named is MDA-MB-231. Description: Induction of cell cycle arrest in human MDA-MB-231 cells assessed as accumulation at S phase at 2 uM measured after 24 hrs by flow cytometry analysis (reference value: 32.63%). The format is functional.
The test system of assay [9] is MDA-MB-231. Nature of the assay: Induction of apoptosis in human MDA-MB-231 cells assessed as apoptotic cells at 10 uM measured after 48 hrs by annexinV-FITC/propidium iodide staining based flow cytometry analysis (reference value: 5.62%). The format is functional.
The test system of assay [10] is MDA-MB-231. Nature of the assay: Induction of cell cycle arrest in human MDA-MB-231 cells assessed as accumulation at G2 phase at 1 uM measured after 24 hrs by flow cytometry analysis (reference value: 23.69%). The format is functional.
Assay [11] relates to MDA-MB-231. Nature of the assay: Induction of cell cycle arrest in human MDA-MB-231 cells assessed as accumulation at G1 phase at 1 uM measured after 24 hrs by flow cytometry analysis (reference value: 43.68%). The format is functional.

For orientation: IC50 means the point on the concentration scale where inhibition reaches its midpoint. For the molecule `CC1=NN(c2ccccc2)C(=O)C12C=CC(=O)C=C2c1ccccc1` (stereo unspecified), the figures for the IC50 with MDA-MB-231 [1], in the assay with A549 and with HCT-116 were 27.4 µM, 16.5 µM and 17.8 µM, respectively.
As to `CC1=NN(c2ccc(Br)cc2)C(=O)C12C=CC(=O)C=C2c1ccccc1` (stereo unspecified), the IC50 with MDA-MB-231 [1], with A549 and in the assay on HCT-116 was > 100 µM each time.
For `CC1=NN(c2ccc(C)cc2)C(=O)C12C=CC(=O)C=C2c1cccc(C)c1` (stereo unspecified), the half-maximal inhibitory concentration (IC50) turned out to be 19.4 µM in the assay on MDA-MB-231 [1], 22.5 µM with A549 and 8.34 µM with HCT-116.
Take `CC1=NN(c2ccc(Cl)cc2)C(=O)C12C=CC(=O)C=C2c1ccccc1` (stereo unspecified): the 50% inhibitory concentration (IC50) with MDA-MB-231 [1], in the assay with A549 and with HCT-116 was > 100 µM in each case.
Regarding `CC1=NN(c2ccc(C)cc2)C(=O)C12C=CC(=O)C=C2c1ccccc1` (stereo unspecified), the figures for the concentration for half-maximal inhibition (IC50) in the assay with MDA-MB-231 [1], with A549 and with HCT-116 were 46.6 µM, 46.3 µM and 16.5 µM, respectively.
Turning to `CC1=NN(c2ccccc2)C(=O)C12C=CC(=O)C=C2c1cccc(C)c1` (stereo unspecified), the IC50 with MDA-MB-231 [1] is 85.8 µM; in the assay with A549, 16.5 µM; in the assay with HCT-116, > 100 µM.
Turning to `CC1=NN(c2ccc(Cl)cc2)C(=O)C12C=CC(=O)C=C2c1ccc(C)cc1` (stereo unspecified), the IC50 in the assay on MDA-MB-231 [1] came to 14.3 µM; in the assay with A549 it was 33.4 µM; in the assay with HCT-116 it was 10.3 µM.
Take `CC1=NN(c2cccc(Cl)c2)C(=O)C12C=CC(=O)C=C2c1ccc(C)cc1` (stereo unspecified): the IC50 is 5.41 µM in the assay on HUVEC, 3.82 µM with MDA-MB-231 [1], 9.05 µM in the assay on A549 and 2.4 to 2.89 µM in the assay on HCT-116. For the same molecule, the Activity with MDA-MB-231 [2] is 68.23%; in the assay on MDA-MB-231 [3] it was “Dose-dependent effect”; with MDA-MB-231 [4], 29.18%; in the assay with MDA-MB-231 [5], 12.2%; with MDA-MB-231 [6] it was 17.5%; with MDA-MB-231 [7], 9.7%. Also, the Activity was 14.27% in the assay with MDA-MB-231 [8], 47.23% in the assay on MDA-MB-231 [9], 21.23% with MDA-MB-231 [10] and 45.59 - 49.59% in the assay on MDA-MB-231 [11].
Take `CC1=NN(c2ccc(Br)cc2)C(=O)C12C=CC(=O)C=C2c1ccc(C)cc1` (stereo unspecified): the IC50 in the assay on MDA-MB-231 [1] is 15.9 µM; in the assay on A549, 27.4 µM; in the assay on HCT-116 it was 10.6 µM.
For `CC1=NN(c2cccc(Cl)c2)C(=O)C12C=CC(=O)C=C2c1cccc(C)c1` (stereo unspecified), the IC50 was 22.3 µM with MDA-MB-231 [1], 20.1 µM in the assay with A549 and 3.74 µM in the assay with HCT-116.
The matching figures for `CC1=NN(c2ccccc2)C(=O)C12C=CC(=O)C=C2c1ccc(C)cc1` (stereo unspecified): 91.9 µM, 19.3 µM and 27.1 µM.
For `CC1=NN(c2ccc(C)cc2)C(=O)C12C=CC(=O)C=C2c1ccc(C)cc1` (stereo unspecified) the same measures were 5.11 µM, 37 µM and 9.71 µM.
As to `CC1=NN(c2ccc(Cl)cc2)C(=O)C12C=CC(=O)C=C2c1cccc(C)c1` (stereo unspecified), the IC50 in the assay with MDA-MB-231 [1] was determined as 26.9 µM; in the assay with A549, 38.4 µM; in the assay with HCT-116, 13.3 µM.
Consider `CC1=NN(c2cccc(Cl)c2)C(=O)C12C=CC(=O)C=C2c1ccccc1` (stereo unspecified), for which the IC50 came to 30.1 µM in the assay with MDA-MB-231 [1], 18.8 µM in the assay on A549 and 7 µM in the assay on HCT-116.
For `CC1=NN(c2ccc(Br)cc2)C(=O)C12C=CC(=O)C=C2c1cccc(C)c1` (stereo unspecified) the same measures were 2.89 µM, 45.4 µM and > 100 µM.
